US4818770A, “Prevention of a plant disease by specific inhibition of fungal polyamine biosynthesis” (priority 1986, dated 1989)
“And” between values parts separate entries of the source, which are not always exact repeats. Identical values can stand only once. “Also recorded” adds a separate entry of the source. Like-named read-outs stand apart in the source and are kept apart here.

Key:
[1] = test system: Collectotrichum lagenarium; test: Radial growth in vitro of cucumber anthracnose fungus; assay type: cell-based, Colletotrichum lagenarium
Procedure: See Table 15 for the effect of DFMO on radial growth in vitro on cucumber anthracnose fungus (Colletcotrichum lagenarium). The cucumber anthracnose fungus growing in Czapek's agar in Petri plates is not affected by DFMO up to 5 mM.

[2] = Tabor et al. (1985); cited from earlier work
[3] = test system: bean plants (Phaseolus vulgaris cv Pinto); test: Effect of sprays on growth and appearance of bean plants; assay type: in vivo; conditions: for growth of the bean plants: sprays 0.01, 0.1 and 1.0 mM
Procedure: Unifoliolate leaves of 10-day-old bean seedlings were sprayed (400 ul per leaf) with DFMO or alpha-difluoromethylarginine (DFMA) at concentrations of 0.01-5 mM, before or after inoculation with uredospores of the bean rust, Uromyces phaseoli, Race 0. The inhibitor solutions were prepared in 0.01% Tween 20, with the pH adjusted to 7.0. Control plants without inhibitor were sprayed similarly and were allowed to dry before inoculation with the pathogen. After inoculation with rust uredospores (25 mg/100 ml of 0.01% Tween 20) all plants were placed in dew chambers (100% relative humidity) for 16 hours at 19° C. in total darkness. After exposures to inhibitors and uredospores, all plants were returned to the greenhouse and arranged randomly. Disease severity was evaluated 7 days after inoculation by counting foliar lesions. In control plants and those treated with low concentrations of DFMO, uredospores were collected randomly from each treatment to determine percent germination and pathogenicity. For determination of germination, spores were dusted onto Petri plates containing 10 mM 2-(N-morpholino)ethanesulfonic acid (Mes) at pH 7.0, 3 mM CaCl2, 2 mM MgSO4, and 1% purified agar, and incubated for 3 hr at 19° C. in the light.

[4] = test system: U. phaseoli; test: Bean rust severity after DFMO and polyamines alone or combined; assay type: in vivo, Uromyces phaseoli
[5] = test system: U. phaseoli; test: Kinetics of bean rust inhibition by delayed postinoculation DFMO; assay type: in vivo, Uromyces phaseoli
[6] = test system: P. recondita f. sp. tritici; assay type: in vivo, Puccinia recondita f. sp. tritici
[7] = test system: U. phaseoli uredospores; test: Uredospore germination on the surface of the unifoliolate bean leaf; assay type: in vivo, Uromyces phaseoli; conditions: sprayed 1 day before inoculation
[8] = test system: Uromyces phaseoli; test: Bean rust lesions on reinoculated trifoliolate leaves; conditions: for Lesions per cm^2 / Lesions per leaflet: reinoculated trifoliolate leaves
Excerpt: Trifoliolate leaves were reinoculated with pathogen after 1 week, before
or after exposure to DFMO, to detect transfer of a protective effect to
other parts of the plant.

[9] = test system: tomato plants; test: Effect on growth of uninoculated tomato plants; assay type: in vivo, Lycoperisicon esculentum; conditions: concentrations up to 20 mM; 28-day observation period
[10] = test system: Uromyces phaseoli; test: Translocation of protective effect in partially treated unifoliolate bean leaves; assay type: in vivo; conditions: for Lesions per cm^2, treated side / Lesions per cm^2, untreated side / Lesions per half leaf, treated side / Lesions per half leaf, untreated side: 1.0 mM on one longitudinal half leaf
[11] = molecular target: T1, arginase (Verticillium dahliae, UniProt G2WV09); test: Arginase activity in mycelium extracts with DFMA as substrate; assay type: biochemical; conditions: mycelium of 12-day old cultures
T1 construct: urea release from arginine or DFMA
T1 sequence (G2WV09 1-327): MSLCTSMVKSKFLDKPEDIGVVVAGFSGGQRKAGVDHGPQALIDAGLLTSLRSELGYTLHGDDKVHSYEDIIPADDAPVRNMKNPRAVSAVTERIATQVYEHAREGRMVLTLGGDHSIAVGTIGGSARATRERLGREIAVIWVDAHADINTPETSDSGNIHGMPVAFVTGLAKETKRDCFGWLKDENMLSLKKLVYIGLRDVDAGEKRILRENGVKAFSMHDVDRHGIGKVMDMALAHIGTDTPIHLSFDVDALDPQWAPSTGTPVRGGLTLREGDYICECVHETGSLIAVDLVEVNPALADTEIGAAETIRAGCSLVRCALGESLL
Procedure: Ornithine decarboxylase and ADCase activity determinations were carried out on 12-day-old mycelium of the fungus cultured on liquid Czapek-Dox medium containing 1% glucose as the carbon source.
Ornithine decarboxylase and ADCase were assayed by the methods of Kaur-Sawhney et al. (4) using D,L-[1-14 C]ornithine and L-[U14 C]arginine as substrates for the respective enzymes. Arginase activity was determined by the methods of Schimke (9), using arginine and DFMA as substrates, and 1-phenyl-1,2-propanedione-2-oxime to detect the urea release by the enzyme. Controls for the arginase determinations were boiled mycelial extracts, and results were adjusted to compensate for readings obtained from substrate blanks. Protein determinations were by the […] method (1), using bovine serum albumin as a reference standard. Difluoromethylornithine and DFMA are products of Merrell-Dow, and are available from them. All other reagents were from Sigma Biochemicals. All experiments were replicated 3 times and repeated twice. Variaions within experiments were generally less than 5%.

[12] = DFMO 0.05 mM alone, postinoculation
[13] = 1.0 mM DFMO sprayed 1 d after spore inoculation
[14] = 1.0 mM DFMO sprayed 2 d after spore inoculation
[15] = 1.0 mM DFMO sprayed 3 d after spore inoculation
[16] = 1.0 mM DFMO sprayed 4 d after spore inoculation
[17] = 1.0 mM DFMO sprayed 5 d after spore inoculation
[18] = postinoculation exposure, DFMO 0.05 mM
[19] = postinoculation exposure, DFMO 0.1 mM
[20] = postinoculation exposure, DFMO 0.5 mM
[21] = postinoculation exposure, DFMO 1.0 mM
[22] = postinoculation exposure, DFMO 5.0 mM
[23] = preinoculation exposure, DFMO 0.05 mM
[24] = preinoculation exposure, DFMO 0.1 mM
[25] = preinoculation exposure, DFMO 0.5 mM
[26] = preinoculation exposure, DFMO 1.0 mM
[27] = preinoculation exposure, DFMO 5.0 mM

## NCCCC(N)(C(=O)O)C(F)F (racemic) [DFMO, DL-alpha-difluorimethylornithine]
[1]; 0.10 mM
  Radial growth (cm): 4.5 cm
[1]; 0.25 mM
  Radial growth (cm): 4.5 cm
[1]; 0.50 mM
  Radial growth (cm): 4.5 cm
[1]; 0.65 mM
  Radial growth (cm): 4.4 cm
[1]; 1.00 mM
  Radial growth (cm): 4.0 cm
[1]; 5.00 mM
  Radial growth (cm): 3.8 cm
[1]; Colletotrichum orbiculare, 0.65 mM, read-out: Percent control
  inhibition of growth at 650 µM: 2%
[1]; Colletotrichum orbiculare, 1.00 mM, read-out: Percent control
  inhibition of growth at 1000 µM: 7%
[1]; Colletotrichum orbiculare, 5.00 mM, read-out: Percent control
  inhibition of growth at 5000 µM: 16%
[1]; up to 5 mM
  effect on fungus growing in Czapek's agar: not affected
[2]
  toxicity: low toxicity
[3]; all concentrations, as high as 5 mM
  appearance, growth and development of sprayed bean plants: looked healthy, exhibiting no malformation or reduction in growth rate; also recorded: no apparent effect on growth and development of the plant
[3]
  growth of the bean plants: no effect
[4]; 0.05 mM DFMO alone
  reduction of number of lesions: 70%
[4]; [12]
  Lesions per cm^2: 22 ± 4 per cm^2
  Lesions per leaf: 1223 ± 268 per leaf
  Lesions per leaf, percent of control: 30% of control
[4]; Uromyces phaseoli, 0.05 mM DFMO, read-out: inhibition of uredial development
  inhibition at 50 µM: ~50%
[5]; [13]
  Lesions per cm^2: 0 per cm^2
  Lesions per leaf: 0 per leaf
[5]; [14]
  Lesions per cm^2: 0 per cm^2
  Lesions per leaf: 0 per leaf
[5]; [15]
  Lesions per cm^2: 0 per cm^2
  Lesions per leaf: 0 per leaf
[5]; [16]
  Lesions per cm^2: 41 ± 5 per cm^2
  Lesions per leaf: 2330 ± 211 per leaf
[5]; [17]
  Lesions per cm^2: 53 ± 4 per cm^2
  Lesions per leaf: 3278 ± 326 per leaf
[6]; 0.01 mM
  % control: 45% and 60%
  Uredia/plant: 44 Uredia/plant and 32 Uredia/plant
[6]; 0.025 mM
  % control: 51% and 66%
  Uredia/plant: 39 Uredia/plant and 27 Uredia/plant
[6]; 0.13 mM
  % control: 55% and 90%
[6]; 0.16 mM
  % control: 52% and 92%
[6]; 0.20 mM
  % control: 65% and 95%
[6]; 1.00 mM
  % control: 72% and 100%
[6]; in vivo
  % control: 52% and 82%
[7]; lower concentrations of DFMO
  spore germination on leaf surface: partially inhibited
[7]; more than 0.5 mM DFMO
  spore germination on leaf surface: completely inhibited
[8]; 5.0 mM DFMO, reinoculated after 1 week
  protection of newly emerged trifoliolate leaves: complete protection
[8]; [18]
  Lesions per cm^2: 59 ± 1 per cm^2
  Lesions per leaflet: 1246 ± 73 per leaflet
[8]; [19]
  Lesions per cm^2: 58 ± 4 per cm^2
  Lesions per leaflet: 1289 ± 131 per leaflet
[8]; [20]
  Lesions per cm^2: 41 ± 4 per cm^2
  Lesions per leaflet: 982 ± 84 per leaflet
[8]; [21]
  Lesions per cm^2: 22 ± 2 per cm^2
  Lesions per leaflet: 422 ± 13 per leaflet
[8]; [22]
  Lesions per cm^2: 0 per cm^2
  Lesions per leaflet: 0 per leaflet
[8]; [23]
  Lesions per cm^2: 64 ± 5 per cm^2
  Lesions per leaflet: 1458 ± 92 per leaflet
[8]; [24]
  Lesions per cm^2: 55 ± 3 per cm^2
  Lesions per leaflet: 1274 ± 120 per leaflet
[8]; [25]
  Lesions per cm^2: 39 ± 7 per cm^2
  Lesions per leaflet: 1172 ± 158 per leaflet
[8]; [26]
  Lesions per cm^2: 16 ± 2 per cm^2
  Lesions per leaflet: 320 ± 22 per leaflet
[8]; [27]
  Lesions per cm^2: 0 per cm^2
  Lesions per leaflet: 0 per leaflet
[9]
  growth and development of uninoculated tomato plants: no apparent effects on the growth and development of the plants
[10]; petiolar or apical half treated with 1 mM DFMO
  protection of the untreated half of the leaf: the other half was also protected against infection
[10]; postinoculation exposure
  Lesions per cm^2, treated side: 0 per cm^2
  Lesions per cm^2, untreated side: 0 per cm^2
  Lesions per half leaf, treated side: 0 per half leaf
  Lesions per half leaf, untreated side: 0 per half leaf
[10]; preinoculation exposure
  Lesions per cm^2, treated side: 0 per cm^2
  Lesions per cm^2, untreated side: 22 ± 4 per cm^2
  Lesions per half leaf, treated side: 0 per half leaf
  Lesions per half leaf, untreated side: 617 ± 112 per half leaf

## N=C(N)NCCC[C@](N)(C(=O)O)C(F)F [DFMA, alpha-difluoromethylarginine]
[11]; isolate TS-1B
  arginase activity with DFMA as substrate: 7.1 pM urea/hr/mg protein
[11]; isolate TS-2B
  arginase activity with DFMA as substrate: 11.3 pM urea/hr/mg protein
[3]
  growth of the bean plants: no effect
[6]; 0.01 mM
  Uredia/plant: 74 Uredia/plant and 49 Uredia/plant
[6]; 0.025 mM
  Uredia/plant: 62 Uredia/plant and 40 Uredia/plant
[6]; 0.065 mM
  % control: 32% and 54%
  Uredia/plant: 54 Uredia/plant and 37 Uredia/plant
[6]; 0.10 mM
  % control: 37% and 51%
  Uredia/plant: 50 Uredia/plant and 39 Uredia/plant
[6]; 0.13 mM
  % control: 34% and 47%
  Uredia/plant: 53 Uredia/plant and 42 Uredia/plant
[6]; 0.16 mM
  % control: 39% and 49%
  Uredia/plant: 49 Uredia/plant and 41 Uredia/plant
[6]; 0.20 mM
  % control: 46% and 47%
  Uredia/plant: 43 Uredia/plant and 42 Uredia/plant
[6]; 1.00 mM
  % control: 57% and 77%
  Uredia/plant: 34 Uredia/plant and 18 Uredia/plant
